This note sets out measurements from ChEMBL document CHEMBL1125126, “Torsionally and hydrophobically modified 2,3-diarylindenes as estrogen receptor ligands” (J Med Chem, 1990).

The target in the assay is Estrogen receptor (Rattus norvegicus) (UniProt P06211+Q62986). Nature of the assay: Displacement of [3H]estradiol from rat uterine estrogen receptor. Format: protein assay.
As for `Cc1ccccc1C1=C(c2ccccc2)c2ccc(O)cc2C1`, the RBA was determined as 100%. Regarding `Cc1ccccc1C1=C(c2ccccc2)Cc2cc(O)ccc21`, the RBA was determined as 11%. `Oc1ccc2c(c1)CC(c1ccccc1F)=C2c1ccccc1` registered an RBA of 49%. `Oc1ccc(C2=C(c3ccccc3)Cc3cc(O)ccc32)c(F)c1` showed an RBA of 9.6%. To `Cc1ccccc1C1=C(c2ccc(O)cc2)c2ccc(O)cc2C1` belongs 23%; to `Cc1ccc(C2=C(c3ccccc3)Cc3cc(O)ccc32)cc1`, 1.7%; to `Oc1ccc2c(c1)CC(c1ccccc1)=C2c1ccccc1F`, 12%.
